Data on one molecule can be found in US20150366839A1, “Schisantherin A for the treatment of neurodegenerative diseases” (priority 2014, published 2015).

The test system of one series is CREB. The series is described as follows: p-CREB, CREB and Bcl-2 time course with SchiA alone, Western blot. It counts as cell-based, Human. As to conditions: 60 μM alone. The protocol:
After treatment, SH-SY5Y cells were washed three times with PBS and then lysis with RIPA lysis buffer containing 1% PMSF and 1% Protease Inhibitor Cocktail and incubated for 30 min on ice. Cell lysates were centrifuged at 12,500 g for 20 min at 4° C. The supernatant was separated and the amount of protein was determined using the BCA protein assay kit (Thermo Scientific Pierce, USA). Protein samples (30 μg) were separated by SDS-PAGE (10% (w/v)) polyacrylamide gel and then transferred to a polyvinylidene difluoride (PVDF) membrane (Bio-Rad, Hercules, Calif.). Subsequently, the membrane was blocked with 5% (v/v) non-fat milk in PBST (PBS containing 0.1% Tween 20) for 1 h at room temperature. The blots were incubated overnight at 4° C. with primary antibodies. After three washes with PBST, the membranes were incubated with horseradish peroxidase-conjugated secondary antibodies (1:2000) in PBST with 5% non-fat milk for 1 h at room temperature. After repeated washes, proteins were visualized with an ECL advanced western blotting detection kit. […] Quantitative assessment of protein bands was done with Gel Doc™ XRS equipped with Quantity One software.
To investigate the effect of SchiA on the activation of the upstream targets of CREB in MPP^+-treated SH-SY5Y cells, the protein levels of p-CREB/CREB and were determined. […]
In general terms: A western blot detects proteins with antibodies after separation by electrophoresis.

For the next series, the system named is zebrafish larvae. The series is classed as in vivo. Particulars: 2.5-10 μM with 250 μM 6-OHDA, 4 days, 10 min session. The protocol: The wild type zebrafish was used for this study.
Zebrafish behaviour was analyzed using a digital video tracking system (Viewpoint ZebraLab system). The system consists of a digital video camera connected to a computer system running the analysis software ZebraLab Man Rev 3.6B.
Moreover, 6-OHDA treatment also markedly altered the swimming behavior of zebrafish. […] Values in FIG. 9 represent the mean±SEM of 12 fish larvae per group of 3-time independent experiments. ###P<0.005 versus control group; *p<0.05, **p<0.01 and *** p<0.005 versus 6-OHDA group. […] The total swimming distance in 10 min travelled by the zebrafish larvae was decreased after exposure to 6-OHDA.

A short description of series [1]: SchiA pharmacokinetics study in plasma. It counts as in vivo, Sprague-Dawley rats. As to conditions: microemulsion 30 mg/kg. The protocol: Male Sprague-Dawley rats (SD rats) with body weight between 220 and 250 g and age between 6 and 7 weeks were supplied by Guangdong Medical Experiment Animal Center (Guangzhou, China). SchiA was prepared as microemulsion for i.v. and p.o. at 30 mg/kg. The concentration of SchiA microemulsion was 4.9 mg/ml. After administration of SchiA, blood samples were collected at 0.033, 0.167, 0.5, 1, 2, 4, 8, 12, 24 and 36 h, respectively. Plasma samples were obtained after centrifugation of the collected blood samples at 10,000 rpm for 5 min. Subsequently, in 100 μl plasma which was taken from the supernatant, 200 μl of 50% acetonitrile and 50% methanol were added. After vortexing for 20 s and centrifuging at 12,000 rpm for 10 min, the supernatant was collected and filtered through a 0.22 μm membrane, of which 20 μl was injected into the chromatographic system for analysis.
Quantitative analysis of SchiA was completed on an Agilent series 1260 HPLC apparatus (Agilent Technologies, Santa Clara, Calif., USA) equipped with a vacuum degasser, a quaternary pump, a manual sampler and an ultraviolet detector. RP Phenonenex C-18 column (250 mm×4.6 mm, 5 μm) was used to separate at 35° C. with a mobile phase of water and methanol (83:17, v/v). The flow rate was 1 ml/min. The monitoring wavelength of SchiA was 230 nm.
And then non-compartmental model of DAS 2.0 program was chosen to calculate the major pharmacokinetic parameters.

The structures appear in SMILES notation.

As to `COc1cc2c(c(OC)c1OC)-c1c(cc3c(c1OC)OCO3)C[C@H](C)[C@](C)(O)[C@H]2OC(=O)c1ccccc1` [SchiA, Schisantherin A], the “phosphorylation of CREB compared with 0 h” value in the series with CREB (after 3 h) was “about 1.5 fold”. The Bcl-2 expression result with CREB (from 3 h to 12 h) was “induced”. In the series with zebrafish larvae, the “6-OHDA-induced reduction of total distance of movement” value is reported as “inhibited 6-OHDA-induced reduction of total distance of movement by zebrafish in a dose dependent manner”. The t1/2 was determined as 15.88 ± 1.82 h in series [1] (i.v.) and 16.543 ± 6.95 h in series [1] (p.o.). Moreover, in series [1] (rat plasma), the Tmax came to 1.33 ± 0.58 h.

What is called Tmax is the time from dosing to the highest level.
